Data as given in publication PMC8460919, “Novel Angiotensin-I Converting Enzyme Inhibitory Peptides Isolated From Rice Wine Lees: Purification, Characterization, and Structure-Activity Relationship” (Frontiers in Nutrition, 2021).
Where two headings read alike, the source gives them in different places. Residues, ends and D or L forms follow the SMILES beside them.

Columns and labels:
[1] = biological target: T1, Angiotensin-I converting enzyme (from rabbit lung) (Oryctolagus cuniculus, UniProt P12822); assay: ACE inhibitory activity (HHL substrate, hippuric acid by HPLC); type: biochemical; details: for inhibition at 1000 µg/mL: concentration 1 mg/ml
T1 construct: Angiotensin-I converting enzyme (from rabbit lung); purchased Sigma Co., USA; host or cells: rabbit lung (tissue-derived)
T1 sequence (P12822 34-1310): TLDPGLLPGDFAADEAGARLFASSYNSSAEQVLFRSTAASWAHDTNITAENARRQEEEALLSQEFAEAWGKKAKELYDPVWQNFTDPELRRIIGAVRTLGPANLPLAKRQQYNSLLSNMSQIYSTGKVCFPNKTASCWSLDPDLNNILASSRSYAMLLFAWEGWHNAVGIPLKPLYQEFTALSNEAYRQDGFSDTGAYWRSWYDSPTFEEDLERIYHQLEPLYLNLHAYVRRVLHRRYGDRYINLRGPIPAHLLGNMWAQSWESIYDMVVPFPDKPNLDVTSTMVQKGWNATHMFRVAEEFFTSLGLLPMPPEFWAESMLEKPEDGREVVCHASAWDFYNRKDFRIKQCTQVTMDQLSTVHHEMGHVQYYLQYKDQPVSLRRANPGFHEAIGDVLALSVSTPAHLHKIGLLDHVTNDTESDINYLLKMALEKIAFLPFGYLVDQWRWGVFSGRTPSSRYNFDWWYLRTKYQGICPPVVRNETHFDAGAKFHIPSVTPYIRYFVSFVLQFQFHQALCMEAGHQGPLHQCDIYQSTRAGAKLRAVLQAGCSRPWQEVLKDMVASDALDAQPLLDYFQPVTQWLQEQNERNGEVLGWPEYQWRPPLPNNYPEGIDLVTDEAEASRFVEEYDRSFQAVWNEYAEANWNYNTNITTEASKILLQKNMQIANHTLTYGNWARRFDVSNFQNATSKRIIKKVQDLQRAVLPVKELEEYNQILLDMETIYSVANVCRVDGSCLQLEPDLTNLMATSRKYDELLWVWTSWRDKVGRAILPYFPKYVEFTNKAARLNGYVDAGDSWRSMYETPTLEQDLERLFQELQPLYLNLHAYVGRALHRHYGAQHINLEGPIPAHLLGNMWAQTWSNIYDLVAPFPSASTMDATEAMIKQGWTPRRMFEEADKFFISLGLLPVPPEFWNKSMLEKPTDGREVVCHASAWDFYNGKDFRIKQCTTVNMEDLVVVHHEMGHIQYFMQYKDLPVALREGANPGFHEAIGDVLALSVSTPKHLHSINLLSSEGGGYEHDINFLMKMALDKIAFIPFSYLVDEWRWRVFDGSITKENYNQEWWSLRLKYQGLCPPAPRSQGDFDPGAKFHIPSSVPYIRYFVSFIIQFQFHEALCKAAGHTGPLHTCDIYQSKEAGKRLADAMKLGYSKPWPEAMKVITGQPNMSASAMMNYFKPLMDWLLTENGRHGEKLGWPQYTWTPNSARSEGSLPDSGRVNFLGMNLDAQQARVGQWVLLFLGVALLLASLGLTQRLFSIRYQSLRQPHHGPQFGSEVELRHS
Experimental: (§1) Rice wine lees was obtained from Guangdong Shunde Winery Co., Ltd., Shunde, China. Angiotensin-I converting enzyme (from rabbit lung) and N-Hippuryl-His-Leu hydrate (HHL) were purchased from Sigma Co., USA. Other chemicals and reagents were of analytical grade.
Angiotensin-I converting enzyme inhibitory activity was measured using the method described in Wu et al. ([29]) with some modifications. For each reaction, 10 μl of 0.25 U/ ml ACE solution (prepared in 0.01 M potassium phosphate buffer containing 0.5 M NaCl, pH 7.0) was mixed with 10 μl of inhibitor solution and incubated for 5 min at 37°C. Subsequently, 30 μl of HHL solution (5 mM in 0.1 M sodium borate buffer containing 0.3 M NaCl, pH 8.3) was added, followed by incubation at 37°C for 1 h. The reaction was terminated with the addition of 70 μl 1 M HCl before subsequent assays were performed. For the control group, 10 μl ACE solution and 80 μl 1 M HCl were simultaneously added to the mixture. A blank sample was prepared by replacing the inhibitor solution with 10 μl borate buffer. […] Angiotensin-I converting enzyme activity (%) was calculated according to the following equation:
ACE inhibition(%) = (A1-A2)-B/(A1-A2)×100%
Where A1, A2, and B are peak areas corresponding to Hippuric Acid in the control group, the blank and the sample, respectively.

ACE [2] = biological target: T2, ACE (Oryctolagus cuniculus, UniProt P12822); assay: Kinetic parameters of ACE inhibition (Lineweaver-Burk plots); type: biochemical, rabbit; details: for type of ACE inhibition: Lineweaver-Burk plots, peptides at 0.05 or 0.1 mg/ml
T2 construct: Angiotensin-I converting enzyme (from rabbit lung); purchased Sigma Co., USA; host or cells: rabbit lung (tissue-derived)
T2 sequence (P12822 34-1310): T1 sequence (P12822 34-1310)
Experimental: Angiotensin-I converting enzyme inhibition of purified peptides was determined using Lineweaver–Burk plots according to reported methods ([32]). Samples were added at two fixed concentrations to each reaction mixture, and enzyme activity was measured for different concentrations of the substrate HHL according to the ACE inhibition assay. The curves were described by 1/area and 1/[S], and the kinetics of ACE inhibitors were estimated by comparing the resulting curves.
To clarify the kinetics of inhibition, Lineweaver–Burk plots were generated. Various concentrations of substrate were incubated with ACE solution in the absence or presence of RWLE peptides at 0.05 or 0.1 mg/ml.

pepsin, chymotrypsin = assay: Stability of peptides during in vitro digestion by gastrointestinal enzymes (ACEi activity after digestion); type: in vitro ADME; details: in vitro digestion by pepsin and chymotrypsin
Experimental: Peptide stability was measured according to the methods described in Chen et al. ([30]) with some modifications. For this assay, 2% (w/w) pepsin was dissolved in a KCl–HCl buffer (0.1 mM) adjusted to pH 2.0, and 2% (w/w) chymotrypsin was dissolved in a KCl–NaOH (0.1 mM) buffer adjusted to pH 7.0. Peptides were dissolved at 1 mg/ml in pepsin or chymotrypsin solutions and incubated at 37°C for 4 h. Reactions were terminated by boiling for 15 min. After centrifugation at 4,000 rpm for 15 min, the supernatant was collected, pH was adjusted to 8.0, and samples were assayed for ACEi activity. The supernatant was also analyzed using the previously described RP-HPLC conditions to evaluate changes to the peptides after in vitro digestion.
Control groups were prepared by incubating inactivated pepsin and/or chymotrypsin (boiled for 15 min) with the sample peptides. After incubation, the mixture was processed and analyzed as described.

ACE [3] = biological target: T2, ACE; assay: Stability of peptides against ACE (pre-incubation with ACE, then ACEi assay); type: in vitro ADME, rabbit; details: for category of ACEi peptide from ACE pre-incubation test: true inhibitor / real substrate / pro-drug type
Experimental: as §1
The stability of peptides against ACE was assayed according to the methods of Deng ([31]), with some modifications. For each reaction, 30 μl of peptides (2 mg/ml) was combined with 30 μl 0.25 U/ml ACE solution and incubated at 37°C for 30 min. Angiotensin-I converting enzyme was then inactivated by boiling the solution for 10 min. As described in section Measurement of ACEi Activity, 20 μl of each peptide sample was used for the detection of ACEi activity.

[4] = peptide concentration 0.05 mg/ml
[5] = peptide concentration 0.1 mg/ml

`CC[C@H](C)[C@H](NC(=O)[C@@H](N)CC(C)C)C(=O)N[C@H](C(=O)N1CCC[C@H]1C(=O)N[C@@H](CCC(N)=O)C(=O)N[C@@H](Cc1c[nH]cn1)C(=O)N[C@@H](Cc1c[nH]cn1)C(=O)O)[C@@H](C)CC` [LIIPQHH] (H-LIIPQHH-OH; N-terminus and C-terminus assumed) gave an IC50 ([1]; synthetic peptides) of 1.41 mM.
`CC[C@H](C)[C@H](NC(=O)[C@@H](N)CC(C)C)C(=O)N[C@H](C(=O)N1CCC[C@H]1C(=O)N[C@@H](CCC(=O)O)C(=O)N[C@@H](Cc1c[nH]cn1)C(=O)O)[C@@H](C)CC` [H6, LIIPEH] (H-LIIPEH-OH; N-terminus and C-terminus assumed) was tested, and the “type of ACE inhibition” value (ACE [2]) was “non-competitive inhibitors (mostly mixed-type)”, the “type of ACE inhibition” value (ACE [2]; listed as LIIPEH) was “mixed-type ACE inhibitors” and the Vm (ACE [2]; [4]) was 0.099 ΔA/min. The Vm (ACE [2]; [5]) was 0.049 ΔA/min, the inhibition at 1000 µg/mL [1] was 91.7% and the IC50 ([1]; products of each purification step (natural, from RWLE)) was 0.0839 mM. The IC50 ([1]; synthetic peptides) was 0.0786 mM, the “stability against gastrointestinal enzymes” value (pepsin, chymotrypsin) was “stable within the gastrointestinal environment” and the “stability against gastrointestinal enzymes” value (pepsin, chymotrypsin; listed as LIIPEH) was “stable”. For the same molecule, the “stability against ACE” value (ACE [3]) was “stable”, the IC50 (ACE [3]; control (co-incubation with inactive ACE), read-out: IC50 without pre-incubation (converted)) was 51.3 µM and the IC50 (ACE [3]; pre-incubation with ACE, 37°C 30 min, read-out: IC50 with pre-incubation (converted)) was 70.7 µM. For the same molecule, the “category of ACEi peptide from ACE pre-incubation test” value (ACE [3]) was “pro-drug ACE-inhibitors”.
With `CC[C@H](C)[C@H](NC(=O)[C@@H](N)CC(C)C)C(=O)N[C@H](C(=O)N1CCC[C@H]1C(=O)N[C@@H](CCC(N)=O)C(=O)N[C@@H](Cc1c[nH]cn1)C(=O)O)[C@@H](C)CC` [H5, LIIPQH] (H-LIIPQH-OH; N-terminus and C-terminus assumed) the “type of ACE inhibition” value (ACE [2]) was “non-competitive inhibitors (mostly mixed-type)”, the “type of ACE inhibition” value (ACE [2]; listed as LIIPQH) was “mixed-type ACE inhibitors” and the Vm (ACE [2]; [4]) was 0.120 ΔA/min. The Vm (ACE [2]; [5]) was 0.070 ΔA/min, the inhibition at 1000 µg/mL [1] was 89.3% and the “stability against gastrointestinal enzymes” value (pepsin, chymotrypsin) was “stable within the gastrointestinal environment”. The “stability against gastrointestinal enzymes” value (pepsin, chymotrypsin; listed as LIIPQH) was “stable”, the “stability against ACE” value (ACE [3]) was “stable” and the “category of ACEi peptide from ACE pre-incubation test” value (ACE [3]) was “pro-drug ACE-inhibitors”.
`CC[C@H](C)[C@H](NC(=O)[C@@H](N)CC(C)C)C(=O)N[C@H](C(=O)N1CCC[C@H]1C(=O)N[C@@H](CCC(N)=O)C(=O)N[C@@H](Cc1c[nH]cn1)C(=O)N[C@@H](Cc1ccc(O)cc1)C(=O)O)[C@@H](C)CC` [LIIPQHY] (H-LIIPQHY-OH; N-terminus and C-terminus assumed) gave an IC50 ([1]; synthetic peptides) of 1.23 mM.
`CC[C@H](C)[C@H](NC(=O)[C@@H](N)CC(C)C)C(=O)N[C@H](C(=O)N1CCC[C@H]1C(=O)N[C@@H](CCC(N)=O)C(=O)O)[C@@H](C)CC` [LIIPQ] (H-LIIPQ-OH; N-terminus and C-terminus assumed) showed an IC50 ([1]; synthetic peptides) of 2.39 mM.
Work on `CC[C@H](C)[C@H](NC(=O)[C@@H](N)CC(C)C)C(=O)N[C@H](C(=O)N1CCC[C@H]1C(=O)O)[C@@H](C)CC` [LIIP] (H-LIIP-OH; N-terminus and C-terminus assumed) yielded an IC50 ([1]; synthetic peptides) of 2.04 mM.
Molecule `CC[C@H](C)[C@H](NC(=O)[C@H](CC(C)C)NC(=O)[C@@H](N)CC(C)C)C(=O)N[C@H](C(=O)N1CCC[C@H]1C(=O)N[C@@H](CCC(N)=O)C(=O)N[C@@H](Cc1c[nH]cn1)C(=O)O)[C@@H](C)CC` [LLIIPQH] (H-LLIIPQH-OH; N-terminus and C-terminus assumed) has an IC50 ([1]; synthetic peptides) of 0.995 mM.
For `CC[C@H](C)[C@H](N)C(=O)N[C@H](C(=O)N1CCC[C@H]1C(=O)N[C@@H](CCC(N)=O)C(=O)N[C@@H](Cc1c[nH]cn1)C(=O)O)[C@@H](C)CC` [IIPQH] (H-IIPQH-OH; N-terminus and C-terminus assumed), the IC50 ([1]; synthetic peptides) was 1.78 mM.
